Results on one compound are retold here after PMC9412104, “Biochemical and Structural Insights on the Poplar Tau Glutathione Transferase GSTU19 and 20 Paralogs Binding Flavonoids” (Frontiers in Molecular Biosciences, 2022).

The target in one experiment is PtGSTU19 (Populus trichocarpa, UniProt B9HKX9). The experiment in a line: Peroxidase activity, NADPH coupled spectrophotometric assay. In kind it is biochemical.
In the next experiment the target is PtGSTU20 (Populus trichocarpa, UniProt D2X9R3). The description is as above. In kind it is biochemical.
The target of the next experiment is PtGSTU19Y160A (Populus trichocarpa, UniProt B9HKX9, Y160A). Particulars: PtGSTU19 Y160A, peroxidase activity, mean ± S.D., n = 3.
The next experiment has as its target PtGSTU19Y160C (Populus trichocarpa, UniProt B9HKX9, Y160C). Conditions: PtGSTU19 Y160C, peroxidase activity, mean ± S.D., n = 3.
The next experiment has as its target PtGSTU19Y160F (Populus trichocarpa, UniProt B9HKX9, Y160F). Particulars: PtGSTU19 Y160F, peroxidase activity, mean ± S.D., n = 3.
For a further experiment, the target named is PtGSTU20C160Y (Populus trichocarpa, UniProt D2X9R3, C160Y). Conditions: PtGSTU19 C160Y in Table S4, peroxidase activity, mean ± S.D., n = 3.
The mark [1] stands for this setting: enzyme concentration increased up to 10 µM.
Where [2] appears, read: peroxidase activity, 1 mM GSH, pH 8.0, mean ± S.D., n = 3.
The mark [3] stands for this setting: read-out: apparent K m, peroxidase activity, 1 mM GSH, pH 8.0, mean ± S.D., n = 3.

Sequence of PtGSTU19 (B9HKX9 entry or part of it): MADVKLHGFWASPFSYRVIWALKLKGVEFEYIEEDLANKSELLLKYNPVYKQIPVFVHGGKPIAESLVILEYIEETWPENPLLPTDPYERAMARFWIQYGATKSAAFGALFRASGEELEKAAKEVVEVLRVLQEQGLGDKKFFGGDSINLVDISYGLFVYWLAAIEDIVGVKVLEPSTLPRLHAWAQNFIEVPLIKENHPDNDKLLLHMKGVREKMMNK
Sequence of PtGSTU20 (D2X9R3 entry or part of it): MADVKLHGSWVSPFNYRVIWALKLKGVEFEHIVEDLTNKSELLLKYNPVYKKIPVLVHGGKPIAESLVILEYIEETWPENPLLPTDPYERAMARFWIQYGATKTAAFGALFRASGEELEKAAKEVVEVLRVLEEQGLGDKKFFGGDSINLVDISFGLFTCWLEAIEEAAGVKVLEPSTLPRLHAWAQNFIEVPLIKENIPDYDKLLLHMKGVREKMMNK
Sequence of PtGSTU20C160Y (D2X9R3 2-219 C160Y): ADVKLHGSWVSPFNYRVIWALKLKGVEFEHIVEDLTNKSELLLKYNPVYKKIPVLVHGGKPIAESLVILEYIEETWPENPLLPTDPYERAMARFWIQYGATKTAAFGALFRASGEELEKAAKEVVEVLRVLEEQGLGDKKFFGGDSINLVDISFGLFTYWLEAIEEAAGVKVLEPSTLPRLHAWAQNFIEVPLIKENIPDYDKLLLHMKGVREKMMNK
Sequence of PtGSTU19Y160C (B9HKX9 2-219 Y160C): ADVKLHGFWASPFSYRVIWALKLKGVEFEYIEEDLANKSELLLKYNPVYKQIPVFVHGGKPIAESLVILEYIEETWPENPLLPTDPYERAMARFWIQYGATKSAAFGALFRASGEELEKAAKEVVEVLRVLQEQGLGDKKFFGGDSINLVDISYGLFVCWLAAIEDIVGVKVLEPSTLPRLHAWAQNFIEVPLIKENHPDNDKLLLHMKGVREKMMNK
Sequence of PtGSTU19Y160F (B9HKX9 2-219 Y160F): as the sequence (B9HKX9 2-219 Y160C) above, with C159F counted along it
Sequence of PtGSTU19Y160A (B9HKX9 2-219 Y160A): as the sequence (B9HKX9 2-219 Y160C) above, with C159A counted along it
Description for PtGSTU19Y160A: (§1) Peroxidase activity toward hydroperoxides was measured using an NADPH coupled spectrophotometric assay ([Pégeot et al., 2014]).
(§2) The measured velocities were corrected by subtracting the rate of the spontaneous nonenzymatic reaction, and three independent experiments were performed at each substrate concentration.
Description for PtGSTU19Y160C: as §1, §2
Description for PtGSTU19Y160F: as §1, §2
Description for PtGSTU20C160Y: as §1, §2

Regarding `CC(C)(OO)c1ccccc1` [CuOOH, cumene hydroperoxide], the “Peroxidase activity (active on the peroxide)” value on PtGSTU19 (setting [1]) and on PtGSTU20 (setting [1]) was “weakly active” throughout. Moreover, the values for the Catalytic efficiency on PtGSTU19 (peroxidase activity) and at PtGSTU20 (peroxidase activity) were 800 M⁻¹ s⁻¹ and 2400 M⁻¹ s⁻¹, respectively. For the same compound, the k cat was found to be 0.17 ± 0.01 s⁻¹ at PtGSTU19 (setting [2]); 0.24 ± 0.01 s⁻¹ on PtGSTU20 (setting [2]); 0.33 ± 0.02 s⁻¹ at PtGSTU19Y160A; 0.45 ± 0.03 s⁻¹ at PtGSTU19Y160C; 0.49 ± 0.01 s⁻¹ on PtGSTU19Y160F; 0.14 ± 0.01 s⁻¹ at PtGSTU20C160Y. Besides, the “k cat/K m” value on PtGSTU19 (setting [2]) is reported as 0.85 ± 0.04 10^3 M^-1s^-1; at PtGSTU20 (setting [2]), 2.4 ± 0.1 10^3 M^-1s^-1. For the same compound, the Km turned out to be 197 ± 31.1 µM on PtGSTU19 (setting [3]); 98.6 ± 15.4 µM on PtGSTU20 (setting [3]); 701 ± 82.7 µM at PtGSTU19Y160A (read-out: apparent KM); 1260 ± 140 µM at PtGSTU19Y160C (read-out: apparent KM); 347 ± 34.6 µM on PtGSTU19Y160F (read-out: apparent KM); 491 ± 97.5 µM on PtGSTU20C160Y (read-out: apparent KM).
